The values that follow come from patent US20260048062A1, “FUSED AMINO PYRIMIDINE COMPOUNDS FOR TREATMENT OF PSYCHOSIS AND PSYCHOTIC DISORDERS” (Ovid Therapeutics Inc., priority 2024, published 2026).

The test addresses T1, KCC2 (Homo sapiens, UniProt Q9H2X9).
T1 construct: expressed in transfected cells; host or cells: HEK-293 (ATCC CRL-1573), transient transfection
T1 sequence (Q9H2X9 1-1116 isoform Q9H2X9-2): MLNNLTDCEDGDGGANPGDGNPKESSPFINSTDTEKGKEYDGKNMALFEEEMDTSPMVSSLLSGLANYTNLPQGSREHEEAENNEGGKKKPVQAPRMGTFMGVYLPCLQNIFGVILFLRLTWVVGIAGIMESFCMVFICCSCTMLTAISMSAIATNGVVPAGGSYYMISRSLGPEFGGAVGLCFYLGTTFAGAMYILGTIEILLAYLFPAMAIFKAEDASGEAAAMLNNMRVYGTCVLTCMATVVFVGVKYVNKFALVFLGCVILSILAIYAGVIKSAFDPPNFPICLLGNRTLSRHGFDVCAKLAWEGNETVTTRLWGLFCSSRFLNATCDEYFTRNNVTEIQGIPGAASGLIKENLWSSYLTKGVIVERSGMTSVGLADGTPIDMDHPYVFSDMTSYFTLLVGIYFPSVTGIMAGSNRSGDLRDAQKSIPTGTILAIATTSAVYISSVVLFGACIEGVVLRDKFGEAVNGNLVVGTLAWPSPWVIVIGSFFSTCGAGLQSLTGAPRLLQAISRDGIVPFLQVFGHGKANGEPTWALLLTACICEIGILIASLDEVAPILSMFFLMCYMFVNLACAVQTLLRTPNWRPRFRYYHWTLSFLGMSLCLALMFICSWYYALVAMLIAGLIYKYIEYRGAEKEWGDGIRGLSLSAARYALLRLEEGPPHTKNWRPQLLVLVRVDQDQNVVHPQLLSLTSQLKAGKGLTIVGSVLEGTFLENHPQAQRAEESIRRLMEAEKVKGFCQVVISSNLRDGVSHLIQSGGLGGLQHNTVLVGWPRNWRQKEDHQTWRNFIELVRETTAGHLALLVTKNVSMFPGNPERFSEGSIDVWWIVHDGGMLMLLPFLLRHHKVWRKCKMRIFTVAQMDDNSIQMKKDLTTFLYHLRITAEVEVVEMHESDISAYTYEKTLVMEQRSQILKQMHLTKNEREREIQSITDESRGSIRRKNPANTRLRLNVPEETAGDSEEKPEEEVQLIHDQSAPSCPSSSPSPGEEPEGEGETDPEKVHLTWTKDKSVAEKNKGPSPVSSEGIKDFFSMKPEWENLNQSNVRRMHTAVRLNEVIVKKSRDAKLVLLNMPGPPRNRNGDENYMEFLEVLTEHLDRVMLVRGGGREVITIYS
The test is described as follows: FLIPR Tl+ flux assay, HEK-293 cells expressing KCC2. Conditions: saturating concentration of 3 μM, 1% BCD vehicle. The test is classed as cell-based. The protocol:
A multi-tiered high-throughput screening assay was used, leveraging a proprietary library of 1.3 million small molecule compounds from AstraZeneca (Cambridge, UK) to identify chemical entities capable of activating KCC2. A single point concentration of 30 μM was used to identify potassium flux using an established thallium (TI+) influx FLIPR assay as the primary read out in HEK-293 cells overexpressing KCC2 (Cardarelli et al., Nat. Med. 23, 1394-1396 (2017); Conway et al., J Biol Chem 292, 21253-21263 (2017); Lee et al., 2022, supra).
Cell Culture and biotinylation. […]
FLIPR TI Flux assay. HEK-293 cells were washed with HBSS, and then incubated with loading buffer containing TI sensitive fluorescent dye (https://www.moleculardevices.com), 20 μM bumetanide 20 μM ouabain and 2.5 mM probenecid for 1 h at room temperature (RT) under control conditions or with drugs in the dark using a FlexStation 3 microplate reader (Molecular Devices) and imaged […] for 30 min. Stimulus buffer was added containing 5 mM K^+/0.5 mM Tl^+ and cells were imaged every 1.5 over a 190 second time course The initial rate Tl^+ uptake (Relative Fluorescence Units (RFU) per second) was determined following addition of the stimulus buffer as outlined previously (Conway et al., 2017, supra) (Lee et al., 2022, supra). […]

For the compound `C[C@@H]1CN(c2nc3c(c(Nc4ccc(C5CCCCC5)cc4)n2)COC3)CCO1` [Compound A, (R)—N-(4-cyclohexylphenyl)-2-(2-methylmorpholino)-5,7-dihydrofuro[3,4-d]pyrimidin-4-amine], the “maximum potentiation of KCC2” value is listed as 90%.
